Experimental data as given in US8569313B2, “Meta-substituted phenyl sulfonyl amides of secondary amino acid amides, the production thereof, and use thereof as matriptase inhibitors” (The Medicines Company (Leipzig) GmbH, priority 2007, dated 2013).

Target: matriptase (Homo sapiens (Human), UniProt Q9Y5Y6)
Test: Determination of the matriptase inhibition (chromogenic substrate CH3SO2-D-Cha-Gly-Arg-pNA, Dixon Ki)
Assay type: biochemical
Conditions: 25° C., pH 8.0; means of at least two determinations
Experimental: Determination of the Matriptase Inhibition
To determine the inhibition effect, 200 μl Tris buffer (inhibitor contains 0.05 M, 0.154 M NaCl, 5% ethanol, pH 8.0), 25 μl substrate (CH3SO2-D-Cha-Gly-Arg-pNA; 2 and 1 mM) and 50 μl matriptase (0.5 μg/ml) were incubated at 25° C. After 3 min the reaction was halted through the addition of 25 μl acetic acid (50%) and the Absorption determined at 405 nm by means of a Microplate Reader (Multiscan Ascent from the company Thermo Electron Corporation). The Ki values were calculated according to Dixon (Biochem. J. 55, 170-171, 1953) through linear regression by means of a computer program. The Ki-values are the means of at least two determinations.
Ki value for the inhibition of matriptase in nM (n.d.=not determined)

Chain of matriptase (Q9Y5Y6 whole entry): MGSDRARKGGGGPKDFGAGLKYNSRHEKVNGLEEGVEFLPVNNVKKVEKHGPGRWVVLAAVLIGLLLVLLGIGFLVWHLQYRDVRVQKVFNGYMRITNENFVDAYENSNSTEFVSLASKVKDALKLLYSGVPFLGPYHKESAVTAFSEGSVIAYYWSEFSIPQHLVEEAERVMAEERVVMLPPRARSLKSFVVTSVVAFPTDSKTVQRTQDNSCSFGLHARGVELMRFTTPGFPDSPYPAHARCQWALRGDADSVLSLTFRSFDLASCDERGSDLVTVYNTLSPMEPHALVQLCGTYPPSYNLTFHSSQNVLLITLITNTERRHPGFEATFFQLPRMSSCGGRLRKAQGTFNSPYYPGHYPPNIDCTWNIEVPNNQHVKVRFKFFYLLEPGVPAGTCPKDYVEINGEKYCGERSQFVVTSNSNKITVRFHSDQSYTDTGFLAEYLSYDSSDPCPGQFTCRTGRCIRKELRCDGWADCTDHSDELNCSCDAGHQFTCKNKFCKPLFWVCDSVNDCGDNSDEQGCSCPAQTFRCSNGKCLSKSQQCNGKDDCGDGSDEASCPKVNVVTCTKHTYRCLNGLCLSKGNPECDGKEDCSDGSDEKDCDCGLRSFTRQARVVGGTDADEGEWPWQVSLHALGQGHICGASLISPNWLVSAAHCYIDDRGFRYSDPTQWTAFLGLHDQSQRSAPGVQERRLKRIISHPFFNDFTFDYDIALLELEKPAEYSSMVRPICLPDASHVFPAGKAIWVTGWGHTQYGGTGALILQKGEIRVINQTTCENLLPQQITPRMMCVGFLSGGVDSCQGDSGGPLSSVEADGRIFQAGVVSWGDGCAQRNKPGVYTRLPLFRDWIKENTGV

Going from `CNC(=O)CCCC1CCN(C(=O)[C@H](Cc2cccc(C(=N)N)c2)NS(=O)(=O)c2cccc(NC(=O)CCN)c2)CC1` [Inhibitor 17, N-(3-β-Ala)amidophenyl sulfonyl-Phe(3-Am)-piperidine buteryl-N-methylamide] to `CNC(=O)CCCC1CCN(C(=O)[C@H](Cc2cccc(C(=N)N)c2)NS(=O)(=O)c2cccc(N3CCCCC3=O)c2)CC1` [Inhibitor 30], the Ki rises from 6.3 nM to 31 nM (4.9-fold).

`N=C(N)c1cccc(CC(NS(=O)(=O)c2cccc(-c3ccccc3)c2)C(=O)N2CCC(CCN)CC2)c1` (stereo not drawn) [Inhibitor 2] and `N=C(N)c1cccc(C[C@H](NS(=O)(=O)c2cccc(NC(=O)CCO)c2)C(=O)N2CCC(CCN)CC2)c1` [Inhibitor 37] are within 1.5-fold of each other in Ki: 100 nM for the first, 117 nM for the second.

`N=C(N)c1cccc(CC(NS(=O)(=O)c2cccc(-c3cccnc3)c2)C(=O)N2CCC(CCN)CC2)c1` (stereo not drawn) [Inhibitor 11] and `NCCC(=O)Nc1cccc(S(=O)(=O)N[C@@H](Cc2cccc(CN)c2)C(=O)N2CCC(CCN)CC2)c1` [Inhibitor 34, H-βAla-3-NH-phenyl sulfonyl-Phe(3-Ame)-(2-aminoethyl)piperidide] are within 1.5-fold of each other in Ki: 47 nM for the first, 56 nM for the second.

`N=C(N)c1cccc(C[C@H](NS(=O)(=O)c2cccc(NC(=O)CCN)c2)C(=O)N2CCC(C(N)=O)CC2)c1` [Inhibitor 23] and `N=C(N)c1cccc(CC(NS(=O)(=O)c2cccc(-c3ccc4[nH]ccc4c3)c2)C(=O)N2CCC(CCN)CC2)c1` (stereo not drawn) [Inhibitor 13] are within 1.5-fold of each other in Ki: 12.1 nM for the first, 13 nM for the second.

First: N=C(N)c1cccc(C[C@H](NS(=O)(=O)c2cccc(CCCCN)c2)C(=O)N2CCC(CCN)CC2)c1 [Inhibitor 16, 3-(1-aminobutyl)-phenyl sulfonyl-Phe(3-Amidino)-4-(2-aminoethyl)piperidide]
Second: CNC(=O)CCCC1CCN(C(=O)C(Cc2cccc(C(=N)N)c2)NS(=O)(=O)c2cccc(-n3ncccc3=O)c2)CC1 (stereo not drawn) [Inhibitor 29]
The Ki of the first is 130-fold lower: 0.74 nM for the first, 98 nM for the second. The first binds more tightly here.

Compared with `N=C(N)c1cccc(C[C@H](NS(=O)(=O)c2cccc(NC(=O)CCN)c2)C(=O)N2CCNCC2)c1` [Inhibitor 27], `CCc1ccc(-c2cccc(S(=O)(=O)NC(Cc3cccc(C(=N)N)c3)C(=O)N3CCC(CCN)CC3)c2)cc1` (stereo not drawn) [Inhibitor 5] is 14-fold lower in Ki: 36 nM for the first, 2.5 nM for the second. The second binds more tightly here.

`CCOc1ccc(-c2cccc(S(=O)(=O)N[C@@H](Cc3cccc(C(=N)N)c3)C(=O)N3CCC(CCCC(=O)NC)CC3)c2)cc1` [Inhibitor 18] and `COc1ccc(-c2cccc(S(=O)(=O)NC(Cc3cccc(C(=N)N)c3)C(=O)N3CCC(CCN)CC3)c2)cc1` (stereo not drawn) [Inhibitor 3] are within 1.5-fold of each other in Ki: 8.1 nM for the first, 6 nM for the second.

Compared with `CNC(=O)CCCC1CCN(C(=O)[C@H](Cc2cccc(C(=N)N)c2)NS(=O)(=O)c2cccc(-c3ccc(C(C)C)cc3)c2)CC1` [Inhibitor 44], `NCCC(=O)Nc1cccc(S(=O)(=O)N[C@@H](Cc2cccc(CN)c2)C(=O)N2CCN(C(=O)OCc3ccccc3)CC2)c1` [Inhibitor 36] is 1.9-fold higher in Ki: 23.5 nM for the first, 44.5 nM for the second.

Compared with `N=C(N)c1cccc(C[C@H](NS(=O)(=O)c2cccc(NC(=O)CCN)c2)C(=O)N2CCCCC2)c1` [Inhibitor 28], `N=C(N)c1cccc(C[C@H](NS(=O)(=O)c2cccc(NC(=O)CCN)c2)C(=O)N2CCC(C(=O)OCc3ccccc3)CC2)c1` [Inhibitor 48] is 46-fold lower in Ki: 32 nM for the first, 0.7 nM for the second. The second binds more tightly here.

Going from `COc1ccc(-c2cccc(S(=O)(=O)NC(Cc3cccc(CN)c3)C(=O)N3CCC(CCN)CC3)c2)cc1` (stereo not drawn) [Inhibitor 35] to `Cc1nccc(-c2cccc(S(=O)(=O)N[C@@H](Cc3cccc(C(=N)N)c3)C(=O)N3CCC(CCN)CC3)c2)n1` [Inhibitor 12], the Ki falls from 145 nM to 28 nM (5.2-fold).

First: COc1ccc(-c2cccc(S(=O)(=O)NC(Cc3cccc(C(=N)N)c3)C(=O)N3CCC(CCN)CC3)c2)cc1OC (stereo not drawn) [Inhibitor 1, 3-(3,4-dimethoxyphenyl)phenyl sulfonyl-d/l-Phe(3-Am)-4-(2-aminoethyl)piperidide]
Second: H-βAla-3-NH-phenyl sulfonyl-Phe(3-Am)-4-piperidyl-(CH2)3—CONH—(CH2)2-PEG10000-CH3 [Inhibitor 50]
The Ki of the first is 10-fold lower: 5.4 nM for the first, 54 nM for the second. The first binds more tightly here.

First: CCOc1ccc(-c2cccc(S(=O)(=O)NC(Cc3cccc(C(=N)N)c3)C(=O)N3CCC(CCN)CC3)c2)cc1 (stereo not drawn) [Inhibitor 4]
Second: CCc1ccc(-c2cccc(S(=O)(=O)N[C@@H](Cc3cccc(C(=N)N)c3)C(=O)N3CCC(CCCC(=O)NC)CC3)c2)cc1 [Inhibitor 19]
The Ki of the first is 4.5-fold lower: 5.4 nM for the first, 24.5 nM for the second. The first binds more tightly here.

`N=C(N)c1cccc(CC(NS(=O)(=O)c2cccc(-c3cccc(Cl)c3)c2)C(=O)N2CCC(CCN)CC2)c1` (stereo not drawn) [Inhibitor 8] and `CNC(=O)CCCC1CCN(C(=O)[C@H](Cc2cccc(C(=N)N)c2)NS(=O)(=O)c2cccc(-c3ccc(C(C)(C)C)cc3)c2)CC1` [Inhibitor 41] are within 1.5-fold of each other in Ki: 91 nM for the first, 87 nM for the second.

Compared with `N=C(N)c1cccc(C[C@H](NS(=O)(=O)c2cccc(NC(=O)CCN)c2)C(=O)N2CCN(C(=O)OCc3ccccc3)CC2)c1` [Inhibitor 26], `N=C(N)c1cccc(C[C@H](NS(=O)(=O)c2cccc(NC(=O)CCN)c2)C(=O)N2CCC(CCCC(=O)O)CC2)c1` [Inhibitor 22] is 42-fold higher in Ki: 6.1 nM for the first, 255 nM for the second. The first binds more tightly here.

Compared with `CC(C)Oc1ccc(-c2cccc(S(=O)(=O)NC(Cc3cccc(C(=N)N)c3)C(=O)N3CCC(CCN)CC3)c2)cc1` (stereo not drawn) [Inhibitor 6], `N=C(N)c1cccc(CC(NS(=O)(=O)c2cccc(-c3ccc(Cl)cc3)c2)C(=O)N2CCC(CCN)CC2)c1` (stereo not drawn) [Inhibitor 7] is 2.2-fold higher in Ki: 12 nM for the first, 26 nM for the second. The first binds more tightly here.

Going from `N=C(N)c1cccc(CC(NS(=O)(=O)c2cccc(-c3ccccc3Cl)c2)C(=O)N2CCC(CCN)CC2)c1` (stereo not drawn) [Inhibitor 9] to `CNC(=O)CCCC1CCN(C(=O)[C@H](Cc2cccc(C(=N)N)c2)NS(=O)(=O)c2cccc(C3CCC(N)=NC3)c2)CC1` (stereo partly drawn) [Inhibitor 47], the Ki falls from 29 nM to 0.49 nM (59-fold).

Compared with `N=C(N)c1cccc(CC(NS(=O)(=O)c2cccc(C3CCC(N)=NC3)c2)C(=O)N2CCC(CCN)CC2)c1` (stereo not drawn) [Inhibitor 15], `CNC(=O)CCCC1CCN(C(=O)[C@H](Cc2cccc(C(=N)N)c2)NS(=O)(=O)c2cccc(-c3ccc(N)nc3)c2)CC1` [Inhibitor 46] is 160-fold higher in Ki: 0.069 nM for the first, 11 nM for the second. The first binds more tightly here.

Compared with `COC(=O)CCCC1CCN(C(=O)[C@H](Cc2cccc(C(=N)N)c2)NS(=O)(=O)c2cccc(NC(=O)CCN)c2)CC1` [Inhibitor 20], `N=C(N)c1cccc(C[C@H](NS(=O)(=O)c2cccc(NC(=O)CCN)c2)C(=O)N2CCC(CCCC(N)=O)CC2)c1` [Inhibitor 21] is 1.9-fold higher in Ki: 6.1 nM for the first, 11.8 nM for the second. The first binds more tightly here.

Going from `CNC(=O)CCCC1CCN(C(=O)[C@H](Cc2cccc(C(=N)N)c2)NS(=O)(=O)c2cccc(NC(=O)C3CNC3)c2)CC1` [Inhibitor 38] to `CCc1ccc(-c2cccc(S(=O)(=O)N[C@@H](Cc3cccc(/C(N)=N\O)c3)C(=O)N3CCC(CCCC(=O)NC)CC3)c2)cc1` [Inhibitor 33], the Ki rises from 16 nM to 24000 nM (1500-fold).

First: N=C(N)c1cccc(C[C@H](NS(=O)(=O)c2cccc(NC(=O)C3CNC3)c2)C(=O)N2CCC(CCN)CC2)c1 [Inhibitor 40]
Second: N=C(N)c1cccc(CC(NS(=O)(=O)c2cccc(-c3ccc(N)nc3)c2)C(=O)N2CCC(CCN)CC2)c1 (stereo not drawn) [Inhibitor 14]
The Ki of the first is 2.5-fold lower: 1.7 nM for the first, 4.2 nM for the second.

First: N=C(N)c1cccc(CC(NS(=O)(=O)c2cccc(-c3ccncc3)c2)C(=O)N2CCC(CCN)CC2)c1 (stereo not drawn) [Inhibitor 10]
Second: N=C(N)c1cccc(C[C@H](NS(=O)(=O)c2cccc(NC(=O)CCN)c2)C(=O)N2CCCC(C(N)=O)C2)c1 (stereo partly drawn) [Inhibitor 24]
The Ki of the first is 2-fold higher: 60 nM for the first, 30.5 nM for the second. The second binds more tightly here.
